Values after ≈ are worked out from the molar mass of the structure shown.
Conditions: for aqueous solubility: pH 6.8

| intrinsic clearance, human liver microsomes [mL/min/kg] | intrinsic clearance, rat liver microsomes [mL/min/kg] | aqueous solubility [µg/mL] | MDR1-MDCK efflux ratio | fraction unbound, human plasma | fraction unbound, rat plasma | SMILES |
| --- | --- | --- | --- | --- | --- | --- |
| 6.7 | ≤ 10.7 | 41.2 (≈ 185 µM) | – | – | – | Cc1cnn(Cc2cc(F)ccc2F)c1N |
| 230 | 1490 | – | – | – | – | Cc1ccc(S(=O)(=O)Nc2ccc3c(c2)c2c(n3S(=O)(=O)c3ccc(C)cc3)CCC2)cc1 |
| ≤ 4.74 | ≤ 10.7 | – | 4.39 | – | – | Cc1nccc(N(C)Cc2ccc(N)nc2)n1 |
| 368 | 2360 | – | – | 0.0517 | 0.0428 | Nc1c(F)ccc2cnc(-n3ccc4ccncc43)cc12 |
| – | – | 39.9 (≈ 145 µM) | – | – | – | CC1(C)CN(C(=O)c2cscn2)CCS1(=O)=O |
| ≤ 4.74 | ≤ 10.7 | – | 1.2 | – | – | O=C(O)Cc1ccc(Oc2ccncc2)cc1 |
| 63 | 669 | 26.7 (≈ 70.1 µM) | 0.822 | – | – | Cn1ccc(C(=O)N2CCCC(c3cccc(-c4cccc(Cl)c4)n3)C2)n1 (stereo not drawn) |
| 9.46 | 124 | 51.7 (≈ 177 µM) | 0.766 | – | – | Cc1cc(N2CCN(C(=O)OC(C)(C)C)[C@H](C)C2)ncn1 |
| 44 | 449 | 22.5 (≈ 87.8 µM) | 0.554 | – | – | Cc1cnn(Cc2nnc(-c3ccccc3)s2)c1 |
| – | – | 15.3 (≈ 48.4 µM) | – | – | – | O=C1Nc2ccc(Cl)cc2[C@@](C#CC2CC2)(C(F)(F)F)O1 |
| 24 | 956 | – | 0.849 | – | – | Cc1ccc2occ(CN3C[C@H]4CCCN4C[C@H]3C)c(=O)c2c1 |
| ≤ 4.74 | 459 | – | – | – | – | CCOc1ccc(NC(=O)c2ccc3c(c2)NC(=O)CO3)cc1 |
| 54.8 | 1060 | – | 0.296 | – | – | NC(=O)COc1ccccc1C(=O)Nc1cccc(-c2ccc3ccccc3c2)n1 |
| 48.7 | 186 | 53.5 (≈ 134 µM) | 35 | – | – | CCc1nnc(Nc2cccc(C3CCCN(CC(=O)N4CCCC4)C3)n2)s1 (stereo not drawn) |
| 184 | 875 | 29.1 (≈ 88.5 µM) | 15.4 | – | – | O=C(Cc1ccc2ccccc2c1)NCCc1nc2ccccc2[nH]1 |
| 92 | 2150 | – | 16.9 | – | – | COc1ccc(C)cc1S(=O)(=O)NCCC(=O)Nc1ccccc1C |
| 67.6 | 274 | – | 11.5 | – | – | CC(=O)N1c2ccc(S(=O)(=O)Nc3cccc(-c4cnco4)c3)cc2CC1C (stereo not drawn) |
| 6.28 | 1140 | – | 131 | – | – | CN1CCC(N(Cc2cccnc2)C(=O)NCCCc2ccccc2)CC1 |

| intrinsic clearance, human liver microsomes [mL/min/kg] | intrinsic clearance, rat liver microsomes [mL/min/kg] | aqueous solubility [µg/mL] | MDR1-MDCK efflux ratio | fraction unbound, human plasma | fraction unbound, rat plasma | SMILES |
| --- | --- | --- | --- | --- | --- | --- |
| 226 | 2510 | 16.9 (≈ 49.3 µM) | 0.834 | – | – | O=C(NC[C@H]1CCN(c2ccccc2)C1)N1CCc2sccc2C1 |
| ≤ 4.74 | ≤ 10.7 | 47 (≈ 171 µM) | 1.72 | – | – | Cc1cc2cc(C(=O)N(C)CCC(=O)O)oc2cc1C |
| 101 | 631 | – | 0.933 | – | – | CCCNS(=O)(=O)Nc1ncnc(OCCOc2ncc(Br)cn2)c1-c1ccc(Br)cc1 |
| ≤ 4.74 | 59.4 | 29.5 (≈ 143 µM) | – | – | – | COc1cccc(NC(=O)C2CNC2)c1 |
| ≤ 4.74 | 30.1 | – | 113 | – | – | Cc1nc(-c2cccc(-c3ccc(C(=O)NC[C@@H]4CCCN4)cc3)c2)no1 |
| ≤ 4.74 | 52.4 | 23.6 (≈ 52.9 µM) | 59.2 | 0.0552 | 0.0926 | Cc1c(C(=O)NCCCN(C)C)sc2ncnc(Nc3ccc(F)cc3OC(C)C)c12 |
| 89.6 | 1150 | 25.5 (≈ 75.8 µM) | 0.592 | – | – | COc1ccc(-c2noc([C@@H]3CCCN3Cc3ccccc3)n2)cn1 |
| ≤ 4.74 | 484 | 14.7 (≈ 54.2 µM) | 0.61 | – | – | Cc1n[nH]c(C)c1Cc1ccc(NCCC(C)C)cc1 |
| 675 | 1950 | 46.9 (≈ 120 µM) | 2.42 | – | – | COc1ccc(CNc2c(-c3ccc(OC)c(OC)c3)nc3cnccn23)cc1 |
| 9.63 | 179 | 53.3 (≈ 158 µM) | 38.3 | 0.476 | 0.244 | CCCc1cc(N2CCc3c(nc(C4CC4)n3C)C2)n2ncnc2n1 |
| 133 | 349 | – | 4.93 | – | – | C[C@H]1CC[C@H](n2c3cnccc3c3cnc(Nc4ccc5c(n4)CCN(C(=O)CO)C5)nc32)CC1 |
| 354 | 2010 | – | 17 | – | – | CC(C)N(CCCNC(=O)Nc1ccc(C(C)(C)C)cc1)C[C@@H]1O[C@@H](n2cc(Br)c3c(N)ncnc32)[C@H](O)[C@H]1O |
| 35.9 | 554 | – | 5.22 | 0.374 | 0.359 | CC1CN(C(=O)c2cccnc2N2CCOCC2)CC(c2ccccc2)O1 (stereo not drawn) |
| – | – | 0.88 (≈ 2.14 µM) | 1.32 | – | – | CCOC(=O)C1CCN(C(=O)c2cc3occc3c(Nc3ccc(F)cc3)n2)CC1 |
| 18.9 | 1080 | – | 0.713 | – | – | N#CC1(C(=O)NCC2(C3CC3)CC2)CCCCC1 |
| 14.8 | ≤ 10.7 | 46 (≈ 69.3 µM) | 23.1 | 0.162 | – | C[C@H]1CN(C2COC2)CCN1c1ccc(Nc2cc(-c3ccnc(N4CCn5c(cc6c5CC(C)(C)C6)C4=O)c3CO)cn(C)c2=O)nc1 |
| 310 | 2720 | 49 (≈ 166 µM) | 0.732 | – | – | Cc1ccccc1-c1nc(Cn2ccnc2C(C)C)c(C)o1 |
| 91 | 869 | 50.7 (≈ 158 µM) | 0.652 | – | – | CC(C)c1nnc(CN2CCN(c3ccccc3Cl)CC2)o1 |

| SMILES | intrinsic clearance, human liver microsomes [mL/min/kg] | intrinsic clearance, rat liver microsomes [mL/min/kg] | aqueous solubility [µg/mL] | MDR1-MDCK efflux ratio | fraction unbound, human plasma | fraction unbound, rat plasma |
| --- | --- | --- | --- | --- | --- | --- |
| Oc1ccc(CN2CCN(c3cccc(Cl)c3)CC2)cc1 | 33.6 | 90 | 2.2 (≈ 7.27 µM) | 0.451 | – | – |
| N#Cc1c(N)nc(SCC(N)=O)c(C#N)c1-c1ccc(OCC2CC2)cc1 | – | – | 0.52 (≈ 1.37 µM) | 42.5 | – | – |
| C=C1C[C@@H]2[C@H](CC[C@]3(C)C(=O)CC[C@@H]23)[C@@]2(C)C=CC(=O)C=C12 | ≤ 4.74 | ≤ 10.7 | – | 0.494 | – | – |

Source: the Biogen ADME set (Fang et al. 2023)
